Structures are written as SMILES. Like-named read-outs stand apart in the source and are kept apart here. Where only a bound is given, the exact number is not on record here.

For test [1], the target named is T1, His tagged full-length PTP1B protein (Homo sapiens, UniProt P18031).
T1 construct: made in house
T1 sequence (P18031 with tags, fused parts or gaps): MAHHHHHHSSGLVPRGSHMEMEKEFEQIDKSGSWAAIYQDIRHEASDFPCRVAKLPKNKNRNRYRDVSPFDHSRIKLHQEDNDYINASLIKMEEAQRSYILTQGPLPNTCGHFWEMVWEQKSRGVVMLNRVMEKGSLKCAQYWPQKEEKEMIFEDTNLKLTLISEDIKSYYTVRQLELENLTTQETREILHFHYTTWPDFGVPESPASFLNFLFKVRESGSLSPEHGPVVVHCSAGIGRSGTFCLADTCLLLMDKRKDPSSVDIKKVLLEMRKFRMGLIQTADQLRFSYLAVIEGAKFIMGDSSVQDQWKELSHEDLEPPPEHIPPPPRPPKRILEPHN
Kind of test: Mobility Shift Assay (MSA) used to determine potency of PTP1B inhibitors. The class given is biochemical. As to conditions: Table 2. As to the method: The enzymatic assay used to determine activity is a mobility shift assay using a LabChip EZ Reader by Caliper Life Sciences. The enzymatic reaction was carried out in assay buffer (50 mM HEPES pH 7.5, 1 mM EGTA, 10 mM EDTA, 0.01% Tween® 20, and 2 mM DTT). […] The enzyme (at 0.5 nM) was incubated with compound for 10 minutes at room temperature. […] The % inhibition was then used to calculate the IC50 values.

Test [2] has as its target T2, His tagged PTPN2 (TC45) protein (Homo sapiens, UniProt P17706).
T2 construct: made in house
T2 sequence (P17706 with tags, fused parts or gaps isoform P17706-2): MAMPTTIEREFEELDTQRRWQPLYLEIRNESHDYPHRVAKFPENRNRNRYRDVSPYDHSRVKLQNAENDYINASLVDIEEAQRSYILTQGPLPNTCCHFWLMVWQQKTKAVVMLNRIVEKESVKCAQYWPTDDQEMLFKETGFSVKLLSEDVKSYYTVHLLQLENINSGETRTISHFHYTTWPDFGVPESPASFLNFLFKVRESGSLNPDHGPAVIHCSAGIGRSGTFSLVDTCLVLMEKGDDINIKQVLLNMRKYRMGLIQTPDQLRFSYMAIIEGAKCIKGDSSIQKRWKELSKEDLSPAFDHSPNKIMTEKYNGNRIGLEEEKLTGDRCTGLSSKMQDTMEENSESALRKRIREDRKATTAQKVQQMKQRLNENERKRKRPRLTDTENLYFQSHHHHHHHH
Nature of the test: Mobility Shift Assay used to determine potency of PTPN2 inhibitors. The class given is biochemical. The conditions noted are these: Table 2; read-out: PTPN2 MSA IC50. An outline of the steps: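 His-tagged human PTPN2 (TC45), 0.5 nM, preincubated 10 min RT with compound (12-point, 1:3 dilution) in HEPES pH 7.5 buffer with EDTA/DTT; 2 µM OG488-labelled phospho-insulin-receptor peptide added, 10 min RT, then quenched. Dephosphorylation read by microfluidic mobility shift (ex 488/em 530 nm); IC50 from % inhibition.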

In test [3] the test system is B16F10 mouse melanoma cells. Kind of test: B16F10 IFNγ-induced cellular growth inhibition assay. It is filed as cell-based. As to conditions: Mus musculus, B16-F10, compound 33 μM, Table 3. As to the method: Example 294: B16F10 IFNγ-Induced Cellular Growth Inhibition Assay
B16F10 mouse melanoma cells (ATCC Cat# CRL-6475, Manassas, Va.) were seeded at a density of 500 cells per well in a 384-well clear bottom plate (Corning Cat#3765, Corning, N.Y.) in 25 μL total volume of DMEM+10% FBS (Sigma Cat# D6429 and Sigma Cat# F4135, St. Louis, MO). Cells were allowed to adhere overnight at 37° C. +5% CO2. On the following day, 12.5 μL of mouse IFNγ (RD systems Cat# 485-MI/CF, Minneapolis, Minn.) was added to half of the plate (columns 13-24) at a concentration of 2 ng/mL for a final assay concentration of 0.5 ng/mL of IFNγ. Media only (12.5 μL of DMEM+10% FBS) was added to the remainder of the plate (columns 1-12). Next, compounds resuspended in DMSO (Sigma Cat# D2650) at 100 mM were diluted in semi-log dilutions in DMSO ranging from 100 mM to 0.001 mM and DMSO only controls were included. The compound/DMSO dilutions were further diluted 1:250 in DMEM+10% FBS, and 12.5 μL of these dilutions were added in triplicates to cells of both treatment arms (with and without IFNγ). Final compound concentrations ranged from 100 μM to 0.001 μM with a final DMSO concentration of 0.1%. Compounds were only dosed in the inner 240 wells, avoiding the outer 2-well perimeter of the plate to minimize edge effects. Finally, the plate was loaded into an IncuCyte® S3 Live Cell Analysis System (Essen Bioscience-Sartorius, Ann Arbor, Mich.) maintained in a 37° C. +5% CO2 incubator, allowed to equilibrate for 2 hours, and imaged every 6 hours for 5 days. Confluence over time for compound dilutions in the presence and absence of IFNγ was measured. Growth inhibition values were obtained when the “DMSO/no IFNγ” control reached confluence >95%. At these time points, the percent growth inhibition of each compound at the indicated concentration was calculated relative to the “DMSO/with IFNγ” control.

In test [4] the test system is Pan T cells isolated from C57BL6 splenocytes. Kind of test: T cell activation assay (CD25/CD69 flow cytometry). It is filed as cell-based, mouse. The conditions noted are these: with TCR stimulation; Table 5. As to the method: Example 295: T cell activation and function assays
Pan T cells were isolated from C57BL6 splenocytes using a MACS Pan T cell isolation kit II (Miltenyi Biotec, Auburn, Calif.) according to the manufacturer's instructions. Isolated T cells (200,000 cells/well in a 96 well flat-bottom plate) were cultured in RPMI 1640 supplemented with 10% FBS, […] 2-mercatoethanol, 100 U/mL penicillin, and 100 μg/mL streptomycin, and incubated with the indicated concentration of compound or DMSO in duplicates. After 1 hour, mouse T cell activator CD3/CD28 Dynabeads (ThermoFisher Scientific, Waltham, Mass.) were added at a 1:5 beads to cells ratio to stimulate the T cells for 2 or 3 days as outlined below. T cells with or without compound were incubated in the absence of T cell activator beads (media only) as control.
After 2 days of stimulation, activation status of T cells was assessed by flow cytometry. T cells were first subjected to Zombie Violet™ Fixable Viability dye (BioLegend, San Diego, Calif.) for dead cell exclusion, washed and then stained with BUV805 labeled anti-CD8, APC-R700 labeled anti-CD25 (both from BD Biosciences, San Jose, Calif.) and PE labeled anti-CD69 (BioLegend, San Diego, Calif.) antibodies. After staining, cells were fixed with 2% paraformaldehyde and acquired on a BD LSRFortessa™ X-20 flow cytometer (BD Biosciences, San Jose, Calif.) using BD FACSDiva™ software. Data was analyzed using FlowJo V10 (Flow Jo LLC, Ashland, OR). Dead cells were excluded and frequencies of activated CD8 T cells was reported as the frequency of CD25+ or CD69+ cells within the CD8+ population. The expression level of CD25 and CD69 indicates the activation status of cells on a per cell basis and was evaluated by the mean fluorescence intensities (MFI) of CD25 and CD69.
On the technique in general: Flow cytometry measures light scatter and fluorescence of single cells or particles in a stream.

[5] abbreviates: +0.5 ng/mL IFNγ, relative to DMSO/with IFNγ control, read-out: % B16F10 growth inhibition (+0.5 ng/mL IFNγ) @ 33 μM.
Setting [6] is: no IFNγ, read-out: % B16F10 growth inhibition (no IFNγ) @ 33 μM.

As a reminder, the IC50 is the concentration that inhibits the measured activity by half. `CC(C)(O)CCCc1ccc2cc(O)c(N3CC(=O)NS3(=O)=O)c(F)c2c1` [Compound 154, 5-[1-fluoro-3-hydroxy-7-(4-hydroxy-4-methylpentyl)naphthalen-2-yl]-1λ^6,2,5-thiadiazolidine-1,1,3-trione]: the IC50 is 1 to 10 nM in test [1] and below 1 nM in test [2]. Further, the values for the inhibition at 33 µM in test [3] (setting [5]) and in test [3] (setting [6]) were 60 to 90% and below 25%, respectively.

As to `CC(C)NC(=O)Oc1ccc2cc(O)c(N3CC(=O)NS3(=O)=O)c(F)c2c1` [Compound 103, 8-fluoro-6-hydroxy-7-(1,1,4-trioxo-1λ^6,2,5-thiadiazolidin-2-yl)naphthalen-2-yl propan-2-ylcarbamate], in test [1], the IC50 was 10 to 100 nM. The inhibition at 33 µM in test [3] (setting [5]) was 60 to 90%; in test [3] (setting [6]), below 25%.

In the case of `O=C1CN(c2c(O)cc3ccc(C4=CCN(S(=O)(=O)C5CC5)C4)cc3c2F)S(=O)(=O)N1` [Compound 113, 5-{7-[1-(cyclopropanesulfonyl)-2,5-dihydro-1H-pyrrol-3-yl]-1-fluoro-3-hydroxynaphthalen-2-yl}-1λ^6,2,5-thiadiazolidine-1,1,3-trione], the IC50 in test [1] is below 1 nM. Also, the “T cell activation and T cell function” value in test [4] was “increased both T cell activation and T cell function”.

Turning to `O=C1CN(c2c(O)cc3ccc(OC(F)F)cc3c2F)S(=O)(=O)N1` [Compound 260, 5-[7-(difluoromethoxy)-1-fluoro-3-hydroxynaphthalen-2-yl]-1λ^6,2,5-thiadiazolidine-1,1,3-trione], the IC50 in test [1] was 10 to 100 nM. Moreover, the “T cell activation and T cell function” value in test [4] is “increased both T cell activation and T cell function”.

For the compound `O=C1CN(c2c(O)cc3ccc(CC4CCN(S(=O)(=O)C5CC5)CC4)cc3c2F)S(=O)(=O)N1` [Compound 257, 5-(7-{[1-(cyclopropanesulfonyl)piperidin-4-yl]methyl}-1-fluoro-3-hydroxynaphthalen-2-yl)-1λ^6,2,5-thiadiazolidine-1,1,3-trione], the IC50 in test [1] was 10 to 100 nM; in test [2], 1 to 10 nM. Besides, the inhibition at 33 µM is 25 to 59% in test [3] (setting [5]) and below 25% in test [3] (setting [6]).

In the case of `O=C1CN(c2c(O)cc3ccc(OCCC4CCC4)cc3c2F)S(=O)(=O)N1` [Compound 353, 5-[7-(2-cyclobutylethoxy)-1-fluoro-3-hydroxynaphthalen-2-yl]-1λ^6,2,5-thiadiazolidine-1,1,3-trione], the IC50 in test [1] and in test [2] was below 1 nM in each case.

For the compound `CP(C)(=O)N1CC=C(c2ccc3cc(O)c(N4CC(=O)NS4(=O)=O)c(F)c3c2)C1` [Compound 168, 5-{7-[1-(dimethylphosphoryl)-2,5-dihydro-1H-pyrrol-3-yl]-1-fluoro-3-hydroxynaphthalen-2-yl}-1λ^6,2,5-thiadiazolidine-1,1,3-trione], in test [1], the IC50 was in the range of 1 to 10 nM. Besides, the inhibition at 33 µM was above 90% in test [3] (setting [5]) and below 25% in test [3] (setting [6]).

For the compound `CC(C)(O)CCOc1ccc2c(F)c(N3CC(=O)NS3(=O)=O)c(O)cc2c1` [Compound 334, 5-[1-fluoro-3-hydroxy-6-(3-hydroxy-3-methylbutoxy)naphthalen-2-yl]-1λ^6,2,5-thiadiazolidine-1,1,3-trione], the IC50 was above 100 nM in test [1] and 10 to 100 nM in test [2].

With `C[C@@](O)(CO)CCOc1ccc2cc(O)c(N3CC(=O)NS3(=O)=O)c(F)c2c1` [Compound 341, 5-{7-[(3S)-3,4-dihydroxy-3-methylbutoxy]-1-fluoro-3-hydroxynaphthalen-2-yl}-1λ^6,2,5-thiadiazolidine-1,1,3-trione], the IC50 in test [1] and in test [2] was below 1 nM each time.

As for `CCC(O)COc1ccc2cc(O)c(N3CC(=O)NS3(=O)=O)c(F)c2c1` (stereo not shown) [Compound 327, 5-[1-fluoro-3-hydroxy-7-(2-hydroxybutoxy)naphthalen-2-yl]-1λ^6,2,5-thiadiazolidine-1,1,3-trione], the IC50 in test [1] and in test [2] was below 1 nM throughout.

On to `O=C1CN(c2c(O)cc3cc(O)c(OCCC4CCCC4)cc3c2F)S(=O)(=O)N1` [Compound 364, 5-[7-(2-cyclopentylethoxy)-1-fluoro-3,6-dihydroxynaphthalen-2-yl]-1λ^6,2,5-thiadiazolidine-1,1,3-trione], for which the IC50 in test [1] and in test [2] was below 1 nM each time.

For the origin of these results see US20230019236A1, “PROTEIN TYROSINE PHOSPHATASE INHIBITORS AND METHODS OF USE THEREOF” (Calico Life Sciences LLC, priority 2019, published 2023).
